Laboratory results: PMC12442099 (ACS Infectious Diseases, 2025)
≈ marks a conversion by molar mass, not a printed value.

Legend:
[1] = system: Rcs cell envelope stress response in Escherichia coli; assay: Rcs stress reporter assay, HTS format, dose-response curves; format: cell-based; settings: for Emax: read-out: Max. effect (%); for EC50: read-out: pEC50 (converted)
Method: We adapted the reporter assay based on the Rcs stress system for HTS in a screening program at the ELF as the first bacterial phenotypic screen used in this setting. , The assay was performed in a 1536-well format using 25 μM PMBN as a reference (set at 100% effect).
The ELF screened their extensive and diverse library consisting of >500,000 small molecules at a concentration of 10 μM. The assay window (S/B) and Z’ values remained stable (2.0–15.2 and 0.50–0.90, respectively) throughout the screening campaign. The detailed standard screening procedure of the ELF is outlined elsewhere. An overview of the selection process of the screening campaign performed here is outlined in Figure . Initially, 340 compounds with an effect ≥20% of the reference compound PMBN were considered biologically active. Usually, up to 1% of the input library is selected for confirmatory, dose–response, orthogonal and deselection assays. Because the number of biological actives identified in this assay was well below the 1% limit, no orthogonal assays were performed. Instead, all compounds were reordered and tested as dilution series in the Rcs assay to generate dose–response curves (DRCs). Each compound’s pEC50 (−log of EC50, defined as the concentration (mol/L) at which 50% effect is achieved) was determined, and compounds with a pEC50 ≥ 4.7 were selected for further analysis. Next, the compounds were subjected to a mammalian cell-based cytotoxicity assay to exclude toxic compounds that may have a generic effect on membrane integrity. Compounds that reduced mammalian cell viability by 50% were considered cytotoxic. The qualified hit list (QHL) was then generated following triaging based on LC-MS analysis and pEC50 values.
Overnight cultures (ONCs) were prepared by inoculating 5 mL medium from glycerol stocks and incubating the culture for 16–18 h. ONCs were then diluted to an OD600 of 0.05 and grown until an OD600 of 0.3–0.4 was reached.
Assay robustness was confirmed by testing its sensitivity to assay-interfering agents, including colored, aggregating and fluorescent compounds. […] For HTS, bacteria were diluted 50x in prewarmed medium. Fifteen nL of assay compounds (10 μM), DMSO (0.25%), or the reference compound polymyxin B nonapeptide (PMBN) at 25 μM were added to 1536 well plates. Next, 6 μL culture aliquots were added to assay plates containing compounds. Plates were briefly centrifuged for 1 min at 150 x g. Plates were incubated at 37 °C with high humidity and fluorescence (Ex./Em. λ: 485/528 nm) was measured at T = 0 and T = 150 min using a ClarioStar plate reader (BMG Labtech). For data analysis, T = 0 values were subtracted from T = 150 values to calculate Z-score and % effect compared to the reference compound.
Dose–response curves of the 340 initial active compounds were determined following the preparation of serial dilutions (20 nM–20 μM; 7 points, √10). The % effect compared to the reference compound PMBN was calculated and plotted for each compound dilution. The resulting plots were used to calculate pEC50 (-log(EC50), with EC50 being determined as the concentration at which a 50% effect is observed).

[2] = system: E. coli MC4100; assay: Growth inhibition after 7 hours (EC80/EC50); settings: Escherichia coli, MC4100, 7 h; for EC50: read-out: EC50 MC4100; for IC80: read-out: EC80 MC4100
[3] = system: Rcs stress response in E. coli MC4100 (WT, FQR, GEPR); assay: Rcs stress reporter assay in MC4100 wildtype and resistant mutants; format: cell-based; settings: EC80 concentrations
Text: Serial passaging of E. coli MC4100 in the presence of increasing concentrations of lomefloxacin or gepotidacin yielded resistant variants of E. coli MC4100. We used MC4100 to raise resistance, because unlike the screening strain TOP10F’, this strain has a functional SOS stress response, which has been implicated in developing resistance against quinolones. Compounds also elicited a robust Rcs stress response in E. coli MC4100, allowing for this strain to be used for stress assays.
4 Rcs stress induced by EC80 concentrations of (A) lomefloxacin, (B) gepotidacin, (C) A2, and (D) B1 in wildtype (WT), fluoroquinolone resistant (FQR) or gepotidacin resistant (GEPR) bacteria. Graphs show the fold change in fluorescence adjusted for bacterial growth as determined by OD600. Error bars indicate the standard deviation of triplicate samples. Data are representative of three independent experiments with similar results. […]
For lower throughput analysis under laboratory conditions, cultures grown to OD600 of 0.3–0.4 were diluted to a final concnetration of 0.05 OD600 units/mL in black, clear-bottom 96-well plates (Greiner Bio-One B.V.). Plates were incubated in a Biotek HTX or H1 plate reader (Agilent Technologies) at 37 °C with continuous shaking. Kinetic studies were performed by measuring OD600 and fluorescence (Ex./Em. Λ: 485/528 nm) every 20 min for 10h. For end point measurements, fluorescence was measured at T = 0 and once more at T = 150 min.

[4] = system: E. coli TOP10F'; assay: Growth inhibition after 7 hours (EC80/EC50); settings: for EC50 / IC80: Escherichia coli, 7 h; for EC50: read-out: EC50 TOP10F'; for IC80: read-out: EC80 TOP10F'
[5] = system: SOS stress response in E. coli MC4100; assay: SOS stress reporter assay (PlexA-mNG); format: cell-based; settings: EC80 compound concentrations (Fig. 5A); Fig. S4
Text: To examine the potential link between DNA gyrase inhibition, SOS stress, and CE stress, we designed a fluorescent SOS reporter plasmid, similar to the reporter plasmids used to study CE stresses.
5 (A) SOS stress induced by different compounds at EC80 concentrations in E. coli MC4100. (B) Rcs stress of different compounds at EC80 concentrations in E. coli MC4100. (C) Rcs stress of the nonquinolone gyrase inhibitor LEI-800 in TOP10F’. (D) Rcs stress induced by mitomycin C in E. coli TOP10F’ and E. coli MC4100. Graphs show fold change in fluorescence adjusted for bacterial growth (OD600). Error bars indicate standard deviation of triplicates. Data are representative of two independent experiments with similar results.

Structure (SMILES) | Emax [1] [%] | EC50 [1] [nM] | EC50 [2] [µg/mL] | IC80 [2] [µg/mL] | Rcs stress in FQR (gyrA S83L) mutant [3] | EC50 [4] [µg/mL] | IC80 [4] [µg/mL] | EC80 concentration ([4]; as quoted in the NPN section) | SOS stress induction in MC4100 [5] | Rcs stress in GEPR mutant [3]
CC(C)(C)n1cc(C(=O)O)c(=O)c2cc(F)c(N3CC4CC3CN4)nc21 (stereo not drawn) [A2] | 26.6 | 107 | 0.125 (≈ 0.347 µM) | 0.25 (≈ 0.694 µM) | lacked Rcs stress | 0.016 (≈ 0.0444 µM) | 0.063 (≈ 0.175 µM) | around 0.35 μM | induced SOS stress at similar levels as the FQ lomefloxacin | 
O=C1COc2ccc(CNC3CCN(CC4Cc5c(F)cc(F)c6ccc(=O)n4c56)CC3)nc2N1 (stereo not drawn) [B1] | 53.3 | 282 | 0.5 (≈ 1.04 µM) | 2 (≈ 4.15 µM) | still exhibited Rcs stress | 0.031 (≈ 0.0644 µM) | 0.5 (≈ 1.04 µM) |  | induced SOS stress at similar levels as the FQ lomefloxacin | did not show Rcs stress
